Measurements: ChEMBL document CHEMBL1201862, “PubChem BioAssay data set” (2004)
Active and inactive are the calls of the source.

Key:
[1] = tested on: Streptococcus sp. 'group A'; test: Streptococcus pyogenes SK(-)GAS viability under kanamycin – luminescence, BacTiterGlo, confirmation, counter-screen for streptokinase expression inhibitor project, dose response (AID 1900); type: functional, organism-based
[2] = target: T1, Streptokinase A (Streptococcus pyogenes serotype M1, UniProt P10520); test: viability-normalized secreted streptokinase activity reduction – plasminogen activation absorbance, OD405, dose response (AID 1914); type: functional, Streptococcus pyogenes M1 GAS;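 note: secreted streptokinase activity via plasminogen activation per viability signal from cell pellet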
T1 sequence (P10520 whole entry): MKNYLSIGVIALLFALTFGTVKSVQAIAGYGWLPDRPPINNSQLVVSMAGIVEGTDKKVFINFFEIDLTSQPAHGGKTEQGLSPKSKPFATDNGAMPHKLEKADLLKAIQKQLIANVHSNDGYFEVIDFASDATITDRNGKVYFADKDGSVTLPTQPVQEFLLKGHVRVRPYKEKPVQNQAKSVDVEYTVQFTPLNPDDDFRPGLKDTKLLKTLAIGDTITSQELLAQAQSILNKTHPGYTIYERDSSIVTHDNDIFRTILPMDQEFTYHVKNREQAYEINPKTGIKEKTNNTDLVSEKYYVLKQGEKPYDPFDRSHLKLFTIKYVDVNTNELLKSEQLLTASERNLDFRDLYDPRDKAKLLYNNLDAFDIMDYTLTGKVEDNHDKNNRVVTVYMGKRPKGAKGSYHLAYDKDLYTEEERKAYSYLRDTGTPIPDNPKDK

[3] = tested on: Streptococcus; test: GAS UMAA2166 growth inhibition – luminescence, BacTiterGlo, counter-screen for streptokinase expression inhibitor project, dose response (AID 1915); type: functional, organism-based;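 note: potency for reduction of bacterial viability or growth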
[4] = target: T2, Rac GTPase-activating protein 1 (Homo sapiens, UniProt Q9H0H5); test: blockers of MgcRacGAP-driven Rac1 GTP hydrolysis – biochemical, ADP Hunter fluorescence, primary and confirmatory, confirmation (AID 624330); type: functional
T2 sequence (Q9H0H5 whole entry): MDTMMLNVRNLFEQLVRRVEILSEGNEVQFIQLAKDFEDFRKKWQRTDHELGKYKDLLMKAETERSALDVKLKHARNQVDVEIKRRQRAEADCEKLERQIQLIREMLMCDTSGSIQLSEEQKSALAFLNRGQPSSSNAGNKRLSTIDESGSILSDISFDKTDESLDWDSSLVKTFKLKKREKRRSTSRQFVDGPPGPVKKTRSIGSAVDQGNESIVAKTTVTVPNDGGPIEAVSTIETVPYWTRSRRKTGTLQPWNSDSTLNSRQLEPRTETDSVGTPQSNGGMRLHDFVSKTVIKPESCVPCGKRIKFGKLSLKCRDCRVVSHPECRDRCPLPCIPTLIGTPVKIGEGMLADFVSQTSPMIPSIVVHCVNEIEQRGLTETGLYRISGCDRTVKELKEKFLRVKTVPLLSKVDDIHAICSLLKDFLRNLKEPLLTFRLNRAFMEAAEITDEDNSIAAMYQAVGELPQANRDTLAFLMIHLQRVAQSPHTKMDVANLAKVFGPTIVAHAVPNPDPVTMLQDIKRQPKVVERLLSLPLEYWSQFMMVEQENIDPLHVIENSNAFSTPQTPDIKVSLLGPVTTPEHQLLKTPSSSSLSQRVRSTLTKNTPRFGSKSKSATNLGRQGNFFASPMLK

[5] = target: Paired box protein Pax-8 (Homo sapiens, UniProt Q06710); test: PAX8 transcriptional activity inhibition in RMG-I – RMG-I cells, luciferase, cherry-pick, dose response (AID 687027); type: functional, cell-based;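 note: luciferase reporter driven by Pax8 target thyroperoxidase promoter measured by SteadyGlo luminescence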
[6] = microbe, parasite or virus in culture; type: functional; details: Mycobacterium tuberculosis
[7] = tested on: INS1; test: INS-1E survival protection against cytokine death – cell-based, luminescence, retest, dose response (AID 449756); type: functional; details: Rattus norvegicus;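 note: cell death triggered by IL-1 beta plus TNF-alpha plus IFN-gamma mixture; protective hits raise ATP signal compared with cytokine alone wells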

Chain of Paired box protein Pax-8 (Q06710 whole entry): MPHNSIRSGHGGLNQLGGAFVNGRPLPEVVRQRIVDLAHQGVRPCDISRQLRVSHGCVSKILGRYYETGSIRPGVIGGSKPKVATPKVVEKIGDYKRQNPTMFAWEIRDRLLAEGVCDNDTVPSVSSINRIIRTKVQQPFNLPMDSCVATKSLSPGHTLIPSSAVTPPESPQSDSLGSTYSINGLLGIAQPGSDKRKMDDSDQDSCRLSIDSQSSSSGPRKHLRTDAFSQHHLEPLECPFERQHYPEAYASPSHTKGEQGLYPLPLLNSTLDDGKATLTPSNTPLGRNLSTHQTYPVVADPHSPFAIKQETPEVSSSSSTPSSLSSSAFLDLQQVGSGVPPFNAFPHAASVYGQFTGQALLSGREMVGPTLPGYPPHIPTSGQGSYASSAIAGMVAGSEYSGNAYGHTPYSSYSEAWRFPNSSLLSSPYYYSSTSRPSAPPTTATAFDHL

Row | Compound | EC50 [1] | EC50 [2] | EC50 [3] | IC50 [4] | other results
1 | O=C(NC(=S)N1CCN(c2ccc(F)cc2)CC1)C12CC3CC(CC(C3)C1)C2 | 29.7 µM (active) | > 150 µM (not active) | > 150 µM (not active) | – | –
2 | CCN=C(S)Nc1cc2oc3ccccc3c2cc1OC | – | – | – | 99.9 µM (active) | –
3 | CS(=O)(=O)Nc1ccc(C(=O)Nc2ccccc2C(=O)NCc2ccco2)cc1 | > 150 µM (not active) | > 150 µM (not active) | > 150 µM (not active) | – | –
4 | CC(NS(=O)(=O)/C=C/c1ccccc1)C(=O)O (centres undefined) | > 150 µM (not active) | > 150 µM (not active) | > 150 µM (not active) | – | –
5 | COc1cc(/C=C/C(=O)OCC(=O)Nc2cc(S(=O)(=O)N3CCCCC3)ccc2C)ccc1O | – | – | – | 68.1 µM (active) | –
6 | O=C(COC(=O)c1ccco1)Nc1cccc(S(=O)(=O)N2CCOCC2)c1 | – | – | – | – | AC50 [5]: 62.1 µM (active)
7 | C[C@@H]1CN([C@@H](C)CO)C(=O)c2cc(NC(=O)Nc3ccc4c(c3)OCO4)ccc2O[C@@H]1CN(C)C(=O)Nc1ccc(C(F)(F)F)cc1 | – | – | – | – | AC50 [5]: 11.1 µM (active)
8 | Cc1ccc(CN=C(S)Nc2ccc(NS(=O)(=O)c3ccc(C)cc3)cc2)cc1 | 9.78 µM (active) | > 150 µM (not active) | 17.6 µM (active) | – | –
9 | Cc1ccc(C2=NN=C(NC(=O)CSc3nncn3C)SC2)cc1 | – | – | – | 256 µM (active) | –
10 | Cc1ccc(Oc2ccc3c(c2)C(=O)N(c2ccc(S(=O)(=O)Nc4nccs4)cc2)C3=O)cc1 | 9.43 µM (active) | > 150 µM (not active) | 20 µM (active) | – | –
11 | Brc1ccc(OCCCN2CCOCC2)cc1 | – | – | – | 123 µM (active) | –
12 | CCCCn1c(=O)c(C(=O)NCc2ccccc2Cl)c(O)c2ccccc21 | 54.8 µM (active) | 5.97 µM (inconclusive) | > 150 µM (not active) | – | –
13 | CCc1ccc2nc(N3C(=O)C(O)=C(C(=O)c4ccco4)C3c3cccs3)sc2c1 (centres undefined) | 2.2 µM (active) | > 150 µM (not active) | 7.12 µM (active) | – | CC50 [6]: > 40 µM (active)
14 | O=C(CN1CCN(Cc2ccccc2)CC1)NC(c1ccccc1)c1ccccc1 | – | – | – | 77.1 µM (active) | –
15 | COc1ccc(CN2CCN(CCSc3ccc(C)cc3)CC2)c(OC)c1OC | – | – | – | 80 µM (active) | AC50 [7]: > 260 µM (inactive)
16 | COc1ccc(C2c3ccc(O)cc3Oc3ncn4nc(-c5ccncc5)nc4c32)cc1OC (centres undefined) | 4.67 µM (active) | > 150 µM (not active) | 27.9 µM (active) | – | –
